Measurements published in US7160992B2, “Amino-modified polysaccharides and methods of generating and using same” (Yeda Research and Development Co., Ltd., priority 2003, dated 2007).
In brackets after ≈: the same amount, converted by molar mass. Several values for one entry are separate records, joined by “and”; a condition that tells them apart may be missing. Equal entries are not always repeated.

How the values were obtained:
RRE IIB RNA = test: Fluorescence anisotropy: RhdRev binding and AAC competition for RRE IIB RNA; parameters: species or system HIV-1
P. aeruginosa = test: Minimal inhibitory concentration, serial two-fold dilutions in TSB; type: cell-based
TAR RNA = test: Fluorescence anisotropy: RhdRev binding and AAC competition for TAR RNA; parameters: species or system HIV-1
[1] = test system: lymphocytes, PBMC and neurons; details: cited from earlier work
S. aureus = test: Minimal inhibitory concentration, serial two-fold dilutions in TSB; type: cell-based
CXCR4 = target: T1, CXCR4 (Homo sapiens, UniProt P61073); test: Inhibition of anti-CXCR4 mAb 12G5 binding to cells, flow cytometry; type: cell-based; details: 10 μM AAC
T1 construct: endogenous in cells; host or cells: PM1 cells and PBMC
T1 sequence (P61073 whole entry): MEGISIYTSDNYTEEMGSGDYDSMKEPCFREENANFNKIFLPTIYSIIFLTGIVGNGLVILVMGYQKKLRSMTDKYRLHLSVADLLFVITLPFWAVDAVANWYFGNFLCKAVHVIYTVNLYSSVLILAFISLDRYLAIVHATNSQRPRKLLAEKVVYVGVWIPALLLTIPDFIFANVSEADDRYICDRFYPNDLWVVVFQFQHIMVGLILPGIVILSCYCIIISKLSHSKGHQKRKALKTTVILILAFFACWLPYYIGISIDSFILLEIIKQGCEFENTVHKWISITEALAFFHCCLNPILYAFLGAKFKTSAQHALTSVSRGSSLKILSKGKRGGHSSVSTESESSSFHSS
Experimental: FIGS. 11a–d are graphs depicting the binding of AACs to CXCR4 in the presence of anti CXCR4 antibody (12G5). PM1 cells were incubated with PE-conjugated isotype control mAb, PE-anti CXCR4 conjugated mAb (12G5) alone, or in the presence of the indicated AACs for 30 min at 4° C. The cells were then washed twice with PBS and analyzed by flow cytometry. The MFI values are shown in parenthesis.
Interaction of AACs with CXCR4 was determined by flow cytometry (FACScan, Becton Dickinson) as described recently (Litovchick et al., 2001, supra). Briefly, 0.5×10^6 cells were washed in ice-cold PBS containing 0.1% sodium azide (wash buffer) and incubated at 4° C. with anti-CXCR4 mAb, 12G5 (PharMingen, San Diego, Calif.) conjugated to phycoerithrine (PE), in the absence or presence of different concentrations of the AACs. After 30 min of incubation, the cells were washed with ice-cold wash buffer and fixed in PBS containing 1% paraformaldehyde. Non-specific fluorescence was assessed by using isotype-matched control. For each sample 10,000 events were acquired. Data were analyzed and processed using CellQuest™ software (Becton Dickinson).

HIV-1IIIB wild type = test: Inhibition of HIV-1IIIB wild type in MT2 or cMAGI cells; type: cell-based; details: HIV-1IIIB wt; mean and standard deviation of three separate experiments; read-out: EC50, Wild-type
Description: The cMAGI assay is based on the ability of HIV-1 TAT to transactivate the expression of an integrated β-galactosidase reporter gene driven by the HIV-LTR [Chackerian, B. et al., 1997. J Virol. 71: 3932–3939; Collins, K. B. et al., 2000. Nat. Med. 6: 475–479]. The β-galactosidase reporter has been modified to remain localized in the nucleus where it can be detected with the X-gal substrate as an intense nuclear stain within a few days of infection. The X-gal substrate used was 5-bromo-4-chloro-3-indoyl-beta-D-galactopyranoside. HIV1IIIB was propagated by subculture in MT2 as described previously [Litovchick (2001) Supra]. Aliquots of cell-free culture supernatants were used as viral inoculum. […] The cytopathic effects of the viral infection of MT2 cells were analyzed by microscopic assessment of syncytium formation. These latter data were obtained by analysis of duplicate samples by two independent observers. HIV-1 infection of cMAGI cells was determined by counting the number of HIV-1 infected cells (stained blue).

B. subtilis = test: Minimal inhibitory concentration, serial two-fold dilutions in TSB; type: cell-based
E. faecalisr = test: as above; type: cell-based
[2] = test system: U38, PM1, H9 cells and PBMC; test: Cellular uptake of AAC-FITC fluorescent probes, fluorescence microscopy; type: cell-based; details: 0.5 μM, 10 minutes of incubation
Experimental: Images were obtained using a Zeiss Axiophot microscope.
Cellular uptake using AAC fluorescent probes—U38, PM1, H9 cells and PBMC(10^5) were incubated for 20 minutes at room temperature in 100 μl RPMI 1640 medium (Gibco-BRL, Life-Technologies, UK) including AAC-FITC derivatives as indicated at a final concentration of 0.5 μM. Cells were washed twice, resuspended in 100 μl medium and analyzed with a Zeiss Axiophot fluorescent microscope.

Gram-positive bacteria = test: Minimal inhibitory concentration, Gram-positive bacteria as a group; type: cell-based; details: range over susceptible Gram-positive bacteria
CCR5 = target: T2, CCR5 (Homo sapiens, UniProt P51681); details: PHA stimulated peripheral blood lymphocytes; cited from earlier work
T2 construct: in PHA stimulated peripheral blood lymphocytes (PBL); host or cells: PHA stimulated peripheral blood lymphocytes (PBL)
T2 sequence (P51681 whole entry): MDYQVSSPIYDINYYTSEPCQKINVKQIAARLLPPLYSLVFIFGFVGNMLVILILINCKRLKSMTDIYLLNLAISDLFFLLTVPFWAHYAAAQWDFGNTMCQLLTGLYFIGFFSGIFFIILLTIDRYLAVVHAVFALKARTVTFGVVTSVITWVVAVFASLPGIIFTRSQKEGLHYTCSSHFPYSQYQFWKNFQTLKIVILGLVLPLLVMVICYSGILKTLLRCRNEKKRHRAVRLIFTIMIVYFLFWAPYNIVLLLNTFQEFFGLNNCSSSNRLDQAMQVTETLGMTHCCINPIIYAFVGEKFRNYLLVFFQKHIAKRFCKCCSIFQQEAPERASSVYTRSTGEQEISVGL

E. coli = test: Minimal inhibitory concentration, serial two-fold dilutions in TSB; type: cell-based
cMAGI cells = test: Competition between FITC-labelled AACs and RANTES; type: cell-based; details: 2.5 mM RANTES
Experimental: Competition between FITC labelled AACs (1 mM) and RANTES (2.5 mM, Pepro Tech Inc., New Jersey, USA) was effected in 2×10^5 cMAGI cells. Following 30 min of incubation, cells were washed with ice-cold wash buffer and analysed by flow cytometry as described above.

ICR (CD-1) mice = test: Acute intravenous toxicity of NeoR6 in mice; type: in vivo
Experimental: Injection volumes applied ranged from 4–10 ml/kg
Observation of clinical signs post-NeoR6 injection—On the day of injection, careful clinical examinations were carried out continuously during the first 90 minutes post-injection. Thereafter, animals were inspected at least once a day for 14 consecutive days. Observations included changes in the skin and fur, eyes and mucous membranes, respiratory, circulatory, autonomic and central nervous systems, somatomotor activity and behavior pattern with particular attention to occurrence of tremors, convulsions, salivation, diarrhea, lethargy, sleep and coma.
Necropsy and Gross Pathology—All test animals, including decedents were subjected to gross necropsy. At necropsy all animals were thoroughly examined for abnormality of tissues or organs. All major body cavities were opened, larger organs were sectioned and the gastro-intestinal tract was opened at intervals for examination of the mucosal surfaces. The normal appearance of major organs was confirmed for each animal and any gross pathological changes or abnormalities were described.

CD4 = target: T3, CD4 (Homo sapiens, UniProt P01730); details: PHA stimulated peripheral blood lymphocytes; cited from earlier work
T3 construct: in PHA stimulated peripheral blood lymphocytes (PBL); host or cells: PHA stimulated peripheral blood lymphocytes (PBL)

S. epidermidis = test: Minimal inhibitory concentration, serial two-fold dilutions in TSB; type: cell-based

Q: Which Kd (RRE IIB RNA; competition of AACs with RhdRev (10 nM) for RRE IIB RNA (20 nM) binding, 85 mM NaCl) does the source give for `NC(N)=NCCC[C@H](N)C(=O)NC[C@@H]1OC(O[C@H]2[C@@H](O)[C@H](O[C@@H]3[C@@H](O)[C@H](NC(=O)[C@@H](N)CCCN=C(N)N)C[C@H](NC(=O)[C@@H](N)CCCN=C(N)N)[C@H]3O[C@H]3O[C@H](CNC(=O)[C@@H](N)CCCN=C(N)N)[C@@H](O)[C@H](O)[C@H]3NC(=O)[C@@H](N)CCCN=C(N)N)O[C@@H]2CO)[C@H](NC(=O)[C@@H](N)CCCN=C(N)N)[C@@H](O)[C@@H]1O` (stereo partly shown) [NeoR6, Neomycin hexa-arginine conjugate] here?
A: 0.023 µM and 0.0233 µM

Q: And the IC50 (RRE IIB RNA; competition of AACs with RhdRev for RRE IIB RNA binding)?
A: 0.0727 ± 0.0101 µM

Q: What about the “MIC” value (P. aeruginosa) of the same molecule?
A: 100 mg/L (≈ 64.4 µM)

Q: And the Kd (TAR RNA; competition of AACs with RhdRev (10 nM) for TAR RNA (20 nM) binding, 85 mM NaCl)?
A: 0.005 µM

Q: What about the IC50 (TAR RNA; competition of AACs with RhdRev for TAR RNA binding) of the same molecule?
A: 0.0199 ± 0.0027 µM

Q: What about the “competition with RhdRev for TAR RNA binding (in words)” value (TAR RNA; up to 20 μM of AAC) of the same molecule?
A: efficiently competed

Q: And the accumulation in cells [1]?
A: accumulate in different cell types

Q: What about the “MIC” value (S. aureus) of the same molecule?
A: 6.25 mg/L (≈ 4.03 µM)

Q: And the “reduction of 12G5 mAb binding to the cells” value (CXCR4; PM1 cells, 30 min at 4° C.)?
A: 90%

Q: And the “median fluorescence intensity (MFI) of PE-12G5 in presence of AAC” value (CXCR4; mAb alone 451, isotype control 30)?
A: 76

Q: And the EC50 (HIV-1IIIB wild type)?
A: 1.9 µM

Q: What about the “MIC” value (B. subtilis) of the same molecule?
A: 1.56 mg/L (≈ 1.01 µM)

Q: What about the “MIC (mg/L)” value (E. faecalisr) of the same molecule?
A: ≧200 mg/L

Q: What about the “cellular uptake of FITC-labeled AAC by PM1 cells” value [2] of the same molecule?
A: uptaken by PM1 cells

Q: What about the “MIC values, Gram-positive bacteria” value (Gram-positive bacteria) of the same molecule?
A: 0.78 to 6.25 mg/L

Q: What about the “inhibition of binding of 2D7, a mAb directed to CCR5” value (CCR5) of the same molecule?
A: neither R3G nor R4K or NeoR6 inhibit the binding

Q: What about the “MIC” value (E. coli) of the same molecule?
A: 100 mg/L (≈ 64.4 µM)

Q: And the “effect of RANTES on uptake of FITC derivative” value (cMAGI cells)?
A: did not affect uptake

Q: What about the adverse effects (ICR (CD-1) mice; 50 mg/kg as 2 successive injections, interdosing interval of 3 hours) of the same molecule?
A: did not cause any adverse effects other than a very transient reduction in respiratory rate and spontaneous motor activity

Q: What about the “weight gain (in words)” value (ICR (CD-1) mice; 14-day observation period, all mice except 2 females (10 or 30 mg/kg)) of the same molecule?
A: normal mode of weight gain

Q: And the “maximum tolerated dose (MTD)” value (ICR (CD-1) mice; acute IV administration)?
A: 30 to 35 mg/kg

Q: And the “pathological findings at necropsy” value (ICR (CD-1) mice; decedent and surviving animals)?
A: no pathological findings

Q: And the “Weight Gain (gr.) (Day 1–15)” value (ICR (CD-1) mice; group 2F, 1 female, 15 mg/kg single bolus)?
A: 4.3 gr.

Q: And the “Weight Gain (gr.) (Day 1–15)” value (ICR (CD-1) mice; group 3F, 1 female, 25 mg/kg single bolus)?
A: 5.3 gr.

Q: What about the “Weight Gain (gr.) (Day 1–15)” value (ICR (CD-1) mice; group 4F, 2 females, 30 mg/kg single bolus, one survivor) of the same molecule?
A: 1.6; — gr.

Q: What about the clinical signs (ICR (CD-1) mice; single IV 30 and 35 mg/kg, confined to the first 10 min after dosing) of the same molecule?
A: respiratory and motoric irregularities

Q: And the mortality (ICR (CD-1) mice; single female mouse, 30 mg/kg IV)?
A: died within the first five minutes post-injection

Q: And the reaction to treatment (ICR (CD-1) mice; single intravenous administration, 10, 15 and 25 mg/kg)?
A: No obvious reaction to treatment

Q: And the “toxicity when given intravenously” value (ICR (CD-1) mice; two single doses of 25 mg/kg of body weight over the course of 2 hours)?
A: non-toxic

Q: And the “inhibition of binding of anti CD4 antibody (Leu 3a)” value (CD4)?
A: neither R3G nor R4K or NeoR6 inhibit the binding

Q: What about the “MIC” value (S. epidermidis) of the same molecule?
A: 0.78 mg/L (≈ 0.503 µM)
